Data on two compounds can be found in ChEMBL document CHEMBL5055650, “4-Acyl Pyrrole Capped HDAC Inhibitors: A New Scaffold for Hybrid Inhibitors of BET Proteins and Histone Deacetylases as Antileukemia Drug Leads” (J Med Chem, 2021).

Series [1] relates to K562. The experiment in a line: Induction of apoptosis in human K562 cells assessed as apoptosis at 3.4 uM after 24 to 72 hrs using annexin V/PI followed by flow cytometry. It counts as functional, cell-based. The conditions noted are these: time 24-72 hrs.
A short description of series [2]: Nonlethal toxicity in zebrafish embryos assessed as embryo survival at 0.005 uM after 72 hrs by visual analysis (reference value: 100%). It is filed as organism-based, Danio rerio. The note with it: in vivo.
Series [3] in a line: Nonlethal toxicity in zebrafish embryos assessed as embryo survival at 0.05 uM after 72 hrs by visual analysis (reference value: 100%). It is filed as organism-based, Danio rerio. The note with it: in vivo.
A short description of series [4]: Nonlethal toxicity in zebrafish embryos assessed as embryo survival at 5 uM after 72 hrs by visual analysis (reference value: 100%). The conditions noted are these: in vivo. It is filed as organism-based, Danio rerio.
The nature of series [5]: Nonlethal toxicity in zebrafish embryos assessed as embryo survival at 50 uM after 72 hrs by visual analysis (reference value: 100%). It is filed as organism-based, Danio rerio. The note with it: in vivo.
Series [6] relates to HPBALL. As to the kind of experiment: Anticancer activity against human HPBALL cells assessed as reduction in total number of colony forming units at 5 uM measured after 24 hrs by colony formation assay. It counts as functional, cell-based.
Series [7] relates to Danio rerio. The experiment in a line: Toxicity in zebrafish embryos assessed as pericardial edema at 0.005 uM after 72 hrs by visual analysis (reference value: 10%). It is filed as organism-based, Embryo. The conditions noted are these: in vivo.
The test system of series [8] is Danio rerio. The experiment in a line: Toxicity in zebrafish embryos assessed as pericardial edema at 0.5 uM after 72 hrs by visual analysis (reference value: 10%). The note with it: in vivo. It counts as organism-based, Embryo.
Series [9] deals with Danio rerio. As to the kind of experiment: Toxicity in zebrafish embryos assessed as pericardial edema at 50 uM after 72 hrs by visual analysis (reference value: 10%). It is filed as organism-based, Embryo. The note with it: in vivo.
The species entered for series [10] is Danio rerio. As to the kind of experiment: Toxicity in zebrafish embryos assessed as head necrosis at 0.005 uM after 72 hrs by visual analysis (reference value: 0%). It counts as organism-based. The conditions noted are these: in vivo.
The species entered for series [11] is Danio rerio. The experiment in a line: Toxicity in zebrafish embryos assessed as head necrosis at 0.05 uM after 72 hrs by visual analysis (reference value: 0%). The note with it: in vivo. It counts as organism-based.
For series [12], the species on record is Danio rerio. As to the kind of experiment: Toxicity in zebrafish embryos assessed as head necrosis at 0.5 uM after 72 hrs by visual analysis (reference value: 0%). The note with it: in vivo. It counts as organism-based.
Series [13] is filed under the species Danio rerio. The experiment in a line: Toxicity in zebrafish embryos assessed as head necrosis at 5 uM after 72 hrs by visual analysis (reference value: 0%). It counts as organism-based. The note with it: in vivo.
The species named for series [14] is Danio rerio. The experiment in a line: Toxicity in zebrafish embryos assessed as head necrosis at 50 uM after 72 hrs by visual analysis (reference value: 0%). It counts as organism-based. The note with it: in vivo.
The species entered for series [15] is Danio rerio. The experiment in a line: Toxicity in zebrafish embryos assessed as tail necrosis at 0.05 uM after 72 hrs by visual analysis (reference value: 0%). It is filed as organism-based. The conditions noted are these: in vivo.
Series [16] is filed under the species Danio rerio. The experiment in a line: Toxicity in zebrafish embryos assessed as tail necrosis at 0.5 uM after 72 hrs by visual analysis (reference value: 0%). It counts as organism-based. The note with it: in vivo.
For series [17], the species on record is Danio rerio. As to the kind of experiment: Toxicity in zebrafish embryos assessed as tail necrosis at 5 uM after 72 hrs by visual analysis (reference value: 0%). It is filed as organism-based. The conditions noted are these: in vivo.
The species entered for series [18] is Danio rerio. As to the kind of experiment: Toxicity in zebrafish embryos assessed as tail necrosis at 50 uM after 72 hrs by visual analysis (reference value: 0%). It is filed as organism-based. The note with it: in vivo.
Series [19] is filed under the species Danio rerio. As to the kind of experiment: Toxicity in zebrafish embryos assessed as malformation of head at 0.05 uM after 72 hrs by visual analysis (reference value: 0%). The conditions noted are these: in vivo. It is filed as organism-based.
For series [20], the species on record is Danio rerio. As to the kind of experiment: Toxicity in zebrafish embryos assessed as malformation of head at 0.5 uM after 72 hrs by visual analysis (reference value: 0%). It is filed as organism-based. The conditions noted are these: in vivo.
For series [21], the species on record is Danio rerio. The experiment in a line: Toxicity in zebrafish embryos assessed as malformation of head at 5 uM after 72 hrs by visual analysis (reference value: 0%). It counts as organism-based. The note with it: in vivo.
For series [22], the species on record is Danio rerio. As to the kind of experiment: Toxicity in zebrafish embryos assessed as malformation of head at 50 uM after 72 hrs by visual analysis (reference value: 0%). It counts as organism-based. The conditions noted are these: in vivo.
The species entered for series [23] is Danio rerio. As to the kind of experiment: Toxicity in zebrafish embryos assessed as malformation of tail at 0.05 uM after 72 hrs by visual analysis (reference value: 5%). It counts as organism-based. The note with it: in vivo.
The species named for series [24] is Danio rerio. The experiment in a line: Toxicity in zebrafish embryos assessed as malformation of tail at 50 uM after 72 hrs by visual analysis (reference value: 5%). It counts as organism-based. The note with it: in vivo.
The species entered for series [25] is Danio rerio. The experiment in a line: Toxicity in zebrafish embryos assessed as teratogenesis at 5 uM after 72 hrs by visual analysis (reference value: 0%). It counts as organism-based, Embryo. The note with it: in vivo.
For series [26], the species on record is Danio rerio. The experiment in a line: Toxicity in zebrafish embryos assessed as teratogenesis at 50 uM after 72 hrs by visual analysis (reference value: 0%). The note with it: in vivo. It counts as organism-based, Embryo.
The species entered for series [27] is Danio rerio. The experiment in a line: Toxicity in zebrafish embryos assessed as cardiac teratogenesis/necrosis at 5 uM after 72 hrs by visual analysis (reference value: 0%). It counts as organism-based, Embryo. The conditions noted are these: in vivo.
The species entered for series [28] is Danio rerio. As to the kind of experiment: Toxicity in zebrafish embryos assessed as cardiac teratogenesis/necrosis at 50 uM after 72 hrs by visual analysis (reference value: 0%). It is filed as organism-based, Embryo. The conditions noted are these: in vivo.
Series [29] is filed under the species Danio rerio. The experiment in a line: Toxicity in zebrafish embryos assessed as brain hemorrhage at 0.005 uM after 72 hrs by visual analysis (reference value: 0%). It counts as organism-based. The note with it: in vivo.
For series [30], the species on record is Danio rerio. The experiment in a line: Toxicity in zebrafish embryos assessed as brain hemorrhage at 0.5 uM after 72 hrs by visual analysis (reference value: 0%). It is filed as organism-based. The note with it: in vivo.
For series [31], the species on record is Danio rerio. The experiment in a line: Toxicity in zebrafish embryos assessed as brain hemorrhage at 5 uM after 72 hrs by visual analysis (reference value: 0%). It is filed as organism-based. The note with it: in vivo.
The species named for series [32] is Danio rerio. As to the kind of experiment: Toxicity in zebrafish embryos assessed as brain hemorrhage at 50 uM after 72 hrs by visual analysis (reference value: 0%). It is filed as organism-based. The conditions noted are these: in vivo.
Series [33] concerns Danio rerio. The experiment in a line: Toxicity in zebrafish embryos assessed as yolk sac edema at 0.005 uM after 72 hrs by visual analysis (reference value: 0%). The conditions noted are these: in vivo. It is filed as organism-based, Embryo.
In series [34] the test system is Danio rerio. As to the kind of experiment: Toxicity in zebrafish embryos assessed as yolk sac edema at 0.05 uM after 72 hrs by visual analysis (reference value: 0%). It counts as organism-based, Embryo. The conditions noted are these: in vivo.
In series [35] the test system is Danio rerio. The experiment in a line: Toxicity in zebrafish embryos assessed as yolk sac edema at 0.5 uM after 72 hrs by visual analysis (reference value: 0%). It is filed as organism-based, Embryo. The conditions noted are these: in vivo.
Series [36] relates to Danio rerio. The experiment in a line: Toxicity in zebrafish embryos assessed as yolk sac edema at 5 uM after 72 hrs by visual analysis (reference value: 0%). The conditions noted are these: in vivo. It counts as organism-based, Embryo.
Series [37] relates to Danio rerio. The experiment in a line: Toxicity in zebrafish embryos assessed as yolk sac edema at 50 uM after 72 hrs by visual analysis (reference value: 0%). The conditions noted are these: in vivo. It is filed as organism-based, Embryo.
The species named for series [38] is Danio rerio. As to the kind of experiment: Toxicity in zebrafish embryos assessed as small eyes at 0.005 uM after 72 hrs by visual analysis (reference value: 10%). It counts as organism-based, Embryo. The note with it: in vivo.
The species entered for series [39] is Danio rerio. As to the kind of experiment: Toxicity in zebrafish embryos assessed as small eyes at 0.05 uM after 72 hrs by visual analysis (reference value: 10%). It counts as organism-based, Embryo. The conditions noted are these: in vivo.
The species entered for series [40] is Danio rerio. The experiment in a line: Toxicity in zebrafish embryos assessed as small eyes at 0.5 uM after 72 hrs by visual analysis (reference value: 10%). It is filed as organism-based, Embryo. The conditions noted are these: in vivo.
For series [41], the species on record is Danio rerio. As to the kind of experiment: Toxicity in zebrafish embryos assessed as small eyes at 50 uM after 72 hrs by visual analysis (reference value: 10%). The note with it: in vivo. It is filed as organism-based, Embryo.

Structures are written as SMILES. The source made the active and inactive calls. No cut-off for these calls is given here.

As to `CCc1c(C(=O)Nc2cc(/C=C/C(=O)NO)ccc2OC)[nH]c(C)c1C(C)=O`, the outcome in series [1] was Active.
In the case of `Cc1[nH]c(C(=O)Nc2cc(S(=O)(=O)N3CCOCC3)ccc2OCCCCCCCC(=O)NO)c2c1C(=O)CCCC2`, the survival at 72 h, 0.005 µM in series [2] was determined as 100%. For the same compound, in series [3], the survival at 72 h, 0.05 µM was 95%. Also, in [4], the survival at 72 h, 5 µM stood at 95%. Besides, in [5], the survival at 72 h, 50 µM is 100%. The result in [6] was Active. Further, the Activity worked out at 15% in series [7]; 20% in series [8]; 15% in [9]; 15% in [10]; 0% in series [11]; 15% in [12]. The Activity in series [13] stood at 0%; in series [14], 15%; in series [15], 0%; in series [16] it was 0%; in [17], 0%; in series [18], 15%. Further, the Activity in series [19] turned out to be 0%; in series [20] it was 15%; in series [21], 0%; in [22] it was 15%; in series [23] it was 0%; in series [24], 15%. Moreover, the Activity in series [25] came to 15%; in series [26], 0%; in series [27] it was 40%; in series [28], 0%; in series [29] it was 0%; in [30], 0%. Moreover, the Activity is 0% in series [31]; 0% in series [32]; 5% in series [33]; 5% in series [34]; 15% in [35]; 0% in series [36]. The Activity in [37] is 10%; in [38], 10%; in [39] it was 5%; in [40], 15%; in series [41], 10%.
